Reference: patent US12728118B2, “Methods and compositions for the treatment of corneal endothelium disorders” (The Schepens Eye Research Institute, Inc., priority 2020, dated 2026)
“Also recorded” adds a separate entry of the source.

Assays:
HCEnC-21T cells = assay: LA-qPCR DNA lesion analysis in HCEnC-21T cells treated with 4-OHE2; assay type: cell-based, human; settings: 15 μM 4-OHE2; 24 h
Protocol: (§1) Human Corneal Endothelial Cell Culture. Telomerase and SV40 T antigen immortalized normal human CE cell lines HCEnC-21T and HCEnC-SV-67F-16, respectively, were previously generated in our laboratory (26, 62). HCEnC-21T cells were seeded in estrogen-free medium (phenol red-free OptiMEM-I; Thermo Fisher Scientific) with charcoal stripped FBS (HyClone), 200 mg/L calcium chloride (Sigma-Aldrich), 0.08% chondroitin sulfate (Sigma-Aldrich) and treated with 15 μM 4-OHE2 (Steraloids) in phenol red-free OptiMEM-I. UVA Irradiation of Mouse Cornea. A UVA LED light source (M365LP1; Thorlabs) with an emission peak of 365 nm light, 9 nm bandwidth (FWHM) and irradiance of 398 mW/cm 2 was focused to illuminate a 4-mm-diameter spot onto the mouse cornea. The energy was measured using a laser sensor (model L49 [150A]; Ophir), and the time of UVA exposure was adjusted to deliver the appropriate fluence (10 min 29 s for 250 J/cm^2, 20 min 57 s for 500 J/cm^2, 31 min 26 s for 750 J/cm^2, and 41 min 54 s for 1,000 J/cm^2). The right eye (OD) was irradiated while the contralateral eye (OS) was covered with heat retention drapes (SpaceDrapes, Inc.) to serve as untreated control. […]
(§2) DNA Damage Analysis Using LA-qPCR. […] DNA lesion frequencies were calculated as described (24). […]

[1] = tested on: mouse corneal endothelial cell (MCEnC); assay: UVA-induced FECD mouse model: corneal endothelial cell density (in vivo confocal HRT / ZO-1 immunostaining); settings: for increase in MCEnC density vs 1,000 J/cm^2 UVA irradiation only / MCEnC density: 2 mo, 1,000 J/cm^2 UVA; for increase in MCEnC density vs 1,000 J/cm^2 UVA irradiation only: NAC in drinking water 1 g/kg from 1 d prior
Protocol: (§3) Experimental Animals. C57BL/6 wild-type mice (male and female, 7 to 15 wk old; The Jackson Laboratory or Charles River) were used for this study. Mice were housed in a climate-controlled animal facility at the Schepens Eye Research Institute (Boston) and kept under cyclic light conditions with 12 h ON or OFF. Mice were anesthetized with a combined dose of ketamine (100 mg/kg) and xylazine (20 mg/kg) administered intraperitoneally. Female mice were irradiated at proestrus stage (61). For the NAC-treated group, mice were fed daily with drinking water containing 1 g of NAC/kg body weight from 1 d prior up to 3 mo post-UVA. All animal experiments were approved by the Institutional Animal Care and Use Committee and adhered to the ARVO Statement for the Use of Animals in Ophthalmic and Vision Research.
Human Corneal Endothelial Cell Culture. Telomerase and SV40 T antigen immortalized normal human CE cell lines HCEnC-21T and HCEnC-SV-67F-16, respectively, were previously generated in our laboratory (26, 62). HCEnC-21T cells were seeded in estrogen-free medium (phenol red-free OptiMEM-I; Thermo Fisher Scientific) with charcoal stripped FBS (HyClone), 200 mg/L calcium chloride (Sigma-Aldrich), 0.08% chondroitin sulfate (Sigma-Aldrich) and treated with 15 μM 4-OHE2 (Steraloids) in phenol red-free OptiMEM-I. UVA Irradiation of Mouse Cornea. A UVA LED light source (M365LP1; Thorlabs) with an emission peak of 365 nm light, 9 nm bandwidth (FWHM) and irradiance of 398 mW/cm 2 was focused to illuminate a 4-mm-diameter spot onto the mouse cornea. The energy was measured using a laser sensor (model L49 [150A]; Ophir), and the time of UVA exposure was adjusted to deliver the appropriate fluence (10 min 29 s for 250 J/cm^2, 20 min 57 s for 500 J/cm^2, 31 min 26 s for 750 J/cm^2, and 41 min 54 s for 1,000 J/cm^2). The right eye (OD) was irradiated while the contralateral eye (OS) was covered with heat retention drapes (SpaceDrapes, Inc.) to serve as untreated control. Mouse eyeballs from CYP1B1-null mice (age 8 to 12 wk, 10 females and 10 males) (31) were enucleated, rinsed with phosphate-buffered saline (PBS), and transported on ice, and cornea excision was performed within 24 h of the animal's death. Four 12-inch RPR-3500A UVA tubes (The Southern New England UV Co.) emitting 350 nm light (irradiance: 7.13 mW/cm 2) were used to irradiate the corneoscleral buttons placed in sterile PBS, with the endothelial side facing the source. The fluence delivered was 25 J/cm^2 (58 min 24 s at a distance of 10 cm). Irradiated corneas were snap-frozen, homogenized using a tissue grinder, and dissolved in methanol:water (2:1) for estrogen metabolite analysis.
The mouse was wrapped with heat retention drapes on the platform that holds the mouse body securely for imaging CE cells by laser scanning IVCM using the Heidelberg Retina Tomograph III (HRT III) with Rostock Corneal Module (RCM) (Heidelberg Engineering). The laser confocal microscope acquires 2D images that represent a coronal section of the cornea of 400×400 μm (160,000 μm^2) at a selectable corneal depth. Acquired images comprise 384×384 pixels and with a lateral resolution of 1 μm per pixel. Digital images were stored on a computer workstation at 3 frames per second.
Analysis of CE Cell Density. The CE density of HRT images acquired before UVA and post-UVA at 2 wk and 1 and 2 mo was analyzed by a semiautomated cell counter in the software Heidelberg Eye Explorer, version 1.3.0 (Heidelberg Engineering GmbH) inbuilt in HRT3. The mean cell density was calculated from 3 mice whose HRT images were counted by at least 2 observers. For each image, an area with at least 50 cells was selected. For CE density calculated from the images of 3 mice with ZO-1 immunostaining, cell count was performed manually by 2 blinded observers using a plug-in for ImageJ 1.46r (https://imagescience.org/meijering/software/imagescience; provided in the public domain by Wayne Rasband, NIH). […]

MCEnC mtDNA and nDNA = assay: DNA damage analysis using LA-qPCR in MCEnCs after UVA; assay type: in vivo, mouse; settings: 1,000 J/cm^2 UVA at 3 mo
Protocol: as §3
(§4) Human Corneal Endothelial Cell Culture. Telomerase and SV40 T antigen immortalized normal human CE cell lines HCEnC-21T and HCEnC-SV-67F-16, respectively, were previously generated in our laboratory (26, 62). […] The energy was measured using a laser sensor (model L49 [150A]; Ophir), and the time of UVA exposure was adjusted to deliver the appropriate fluence (10 min 29 s for 250 J/cm^2, 20 min 57 s for 500 J/cm^2, 31 min 26 s for 750 J/cm^2, and 41 min 54 s for 1,000 J/cm^2). […]
as §2

MCEnCs = assay: TUNEL assay on whole mount mouse CE after UVA; assay type: in vivo; settings: females and males; 3 mo post-UVA
Protocol: as §3, §4

mouse cornea = assay: UVA-induced FECD mouse model: central corneal thickness (CCT) by OCT; assay type: in vivo
Protocol: as §3, §1
In vivo Imaging. […] CCT was measured using inbuilt software.

mouse aqueous humor = assay: ROS production assay (H2O2, Amplex Red) in mouse aqueous humor after UVA; assay type: in vivo; settings: 1 d post-UVA
Protocol: as §3, with “All animal experiments were approved by the Institutional Animal Care and Use Committee and adhered to the ARVO Statement for the Use of Animals in Ophthalmic and Vision Research.” left out
Human Corneal Endothelial Cell Culture. […] The energy was measured using a laser sensor (model L49 [150A]; Ophir), and the time of UVA exposure was adjusted to deliver the appropriate fluence (10 min 29 s for 250 J/cm^2, 20 min 57 s for 500 J/cm^2, 31 min 26 s for 750 J/cm^2, and 41 min 54 s for 1,000 J/cm^2). […]
ROS Production Assay. Extracellular H2O2 levels in the mouse aqueous humor (3 μL), collected using a capillary needle from the dilated mouse anterior chamber, were detected using the Amplex Red Assay Kit (Molecular Probes, Life Technologies) according to manufacturer's instructions. Fluorescence was measured with excitation and emission at 550 and 590 nm, respectively, using a microplate reader (Bio-Tek) with Gen5 software at 37° C.

[2] = tested on: corneal endothelial cell (CEnC); assay: UVA light-induced CEnC loss in NQO1+/+ and NQO1−/− female mice (mouse model of FECD), HRT imaging; assay type: in vivo
Protocol: A mouse model of FECD was generated by knocking out the NQO1 gene. […] NQO1+/+ and NQO1−/− female mice were irradiated with UVA (500 J/cm^2; time: 20 minutes) to initiate CEnC loss. Either TMS (1 mg/kg) or DMSO (vehicle) was intraperitoneally injected three times a week post-UVA irradiation until week 2 (FIG. 13A). Central corneal thickness (CCT) and Corneal endothelium (CE) imaging was performed using anterior segment-optical coherence tomography (OCT) and Heidelberg Retina Tomograph III (HRT III) prior to UVA irradiation and then at day 1, week 1, week 2, and week 4 post-UVA irradiation. The CE density (cells/mm^2) was quantified by a semi-automated cell counter inbuilt in HRT machine. A mouse model of FECD was generated by knocking out the NQO1 gene. […] NQO1+/+ and NQO1−/− female mice were irradiated with UVA (500 J/cm^2; time: 20 minutes) to initiate CEnC loss. Either berberine (10 mg/kg) or Vehicle (90% PBS+5% Tween-80+5% polyethylene glycol) was intraperitoneally injected immediately after and at week 1 post-UVA irradiation (FIG. 14A). Central corneal thickness (CCT) and corneal endothelium (CE) imaging was performed using anterior segment-optical coherence tomography (AS-OCT) and Heidelberg Retina Tomograph III (HRT III) prior to UVA irradiation and then at day 1, week 1, and week 2, post-UVA irradiation. The CE density (cells/mm^2) was quantified by a semi-automated cell counter inbuilt in HRT machine.

[3] = tested on: corneal endothelial (CE) cell; assay: UVA-induced corneal endothelial cell loss in female mice, CYP1B1 inhibitor treatment; assay type: in vivo, mouse
Protocol: FIG. 12. […] TMS was injected intraperitoneally (1.5 mg/kg) in female mice 1 h prior to 500 J/cm^2 UVA and 3 times a week thereafter for two weeks. Mice similarly injected with DMSO served as the control (n=5; white bar).

## C[C@]12CC[C@@H]3c4ccc(O)c(O)c4CC[C@H]3[C@@H]1CC[C@@H]2O [4-OHE2, 4-hydroxyestradiol]
HCEnC-21T cells
  DNA lesions in the nuclear encoded β-globin gene: 0.46 DNA lesions per 10 kb
  mtDNA lesions: 0.65 DNA lesions per 10 kb

## CC(=O)N[C@@H](CS)C(=O)O [NAC, N-acetylcysteine]
[1]; UVA 1000 J/cm^2, in vivo (FIG. 10)
  morphological and molecular changes induced by UVA: rescued
[1]; females
  increase in MCEnC density vs 1,000 J/cm^2 UVA irradiation only: 1.7 fold
[1]; females, no-NAC 855±115
  MCEnC density: 1,521±313 cells per square millimeter
[1]; male and female, 3 mo after UVA, ZO-1 immunostaining
  endothelial cell density: significantly rescued
[1]; males
  increase in MCEnC density vs 1,000 J/cm^2 UVA irradiation only: 1.6 fold
[1]; males, no-NAC 944±136
  MCEnC density: 1,560±136 cells per square millimeter
MCEnC mtDNA and nDNA; both sexes
  nDNA damage: significantly rescued
MCEnC mtDNA and nDNA; females
  mtDNA damage: persisted
MCEnCs
  TUNEL-positive cells vs non-NAC-treated UVA irradiated mice: significantly less TUNEL-positive cells
Mouse cornea; 1 to 3 mo after 1,000 J/cm^2 UVA
  CCT: remained close to the untreated baseline
Mouse cornea; females, 1, 2, and 3 mo after 1,000 J/cm^2 UVA
  CCT vs 1,000 J/cm^2 treated females: significant decrease in CCT
Mouse cornea; males, 2 wk and 1 and 3 mo after 1,000 J/cm^2 UVA
  CCT vs 1,000 J/cm^2 treated males: significant decrease in CCT
Mouse aqueous humor
  ROS formed due to UVA (H2O2 in aqueous humor): significantly reduced

## COc1cc(/C=C/c2ccc(OC)cc2OC)cc(OC)c1 [TMS, trans-2,3′,4,5′-tetramethoxystilbene]
[2]; NQO1+/+ and NQO1−/− female mice, TMS 1 mg/kg ip three times a week, weeks 2 and 4 post-UVA 500 J/cm^2
  morphology of CEnC vs vehicle: less irregular morphology
[2]; NQO1+/+ and NQO1−/− female mice, TMS 1 mg/kg ip, weeks 2 and 4 post-UVA 500 J/cm^2
  CEnC number vs vehicle: higher CEnC number; also recorded: reduces CEnC loss
[3]; 1 week, 2 weeks and 1 month post 500 J/cm^2, 1.5 mg/kg intraperitoneally 1 h prior and 3 times a week for two weeks, vs DMSO, p<0.05
  corneal endothelial cell loss: Rescue of corneal endothelial cell loss
[3]; mouse model of FECD, in vivo (FIGS. 11 and 12)
  endothelial cell degeneration / UVA-induced corneal endothelial cell loss: delayed the endothelial cell degeneration; also recorded: Rescue of UVA-induced corneal endothelial cell loss

## COc1ccc2cc3[n+](cc2c1OC)CCc1cc2c(cc1-3)OCO2 [berberine]
[2]; NQO1+/+ and NQO1−/− female mice, berberine 10 mg/kg ip, week 2 post-UVA 500 J/cm^2
  morphology of CEnC vs vehicle: less irregular morphology
[2]; NQO1+/+ females, berberine 10 mg/kg ip, week 2 post-UVA
  CEnC number vs vehicle: trend towards higher CEnC number
[2]; NQO1−/− females, berberine 10 mg/kg ip, week 2 post-UVA
  CEnC number vs vehicle: significantly higher CEnC number
[2]; berberine 10 mg/kg, mouse model of Fuchs Dystrophy (FIG. 14 title)
  UVA light-induced CEnC loss: rescues UVA light-induced CEnC loss
